| SMILES | melting point [°C] |
| --- | --- |
| S=c1[nH]c(-c2ccccc2Oc2ccccc2)nn1Cc1ccccc1 [Example 39, 1,2-Dihydro-5-[2-(phenoxy)phenyl]-2-(phenylmethyl)-3H-1,2,4-triazole-3-thione] | 158 to 159 |
| S=c1[nH]c(-c2ccncc2)nn1Cc1ccccc1 [Example 14, 1,2-Dihydro-2-(phenylmethyl)-5-(4-pyridinyl)-3H-1,2,4-triazole-3-thione] | 160 to 162 |
| COc1ccc(Br)c(-c2nn(Cc3ccccc3)c(=S)[nH]2)c1 [Example 12, 5-(2-Bromo-5-methoxyphenyl)-1,2-dihydro-2-(phenylmethyl)-3H-1,2,4-triazole-3-thione] | 154 to 155 |
| FC(F)(F)c1ccc(-c2nn(Cc3ccccc3)c(=S)[nH]2)cc1 [Example 21, 1,2-Dihydro-2-(phenylmethyl)-5-[4-(trifluoromethyl)phenyl]-3H-1,2,4-triazole-3-thione] | 201 to 203 |
| CC(C)(C)c1ccc(Cn2nc(-c3ccccc3Cl)[nH]c2=S)cc1 [Example 51, 5-(2-Chlorophenyl)-1,2-dihydro-2-[(4(1,1-dimethylethyl)phenyl)methyl]-3H-1,2,4-triazole-3-thione] | 211 to 215 |
| S=c1[nH]c(-c2ccccc2Cl)nn1Cc1ccccc1I [Example 59, 5-(2-Chlorophenyl)-1,2-dihydro-2-[(2-iodophenyl)methyl]-3H-1,2,4-triazole-3-thione] | 189 to 190 |
| S=c1[nH]c(-c2ccco2)nn1Cc1ccccc1 [Example 11, 5-(2-Furanyl)-1,2-dihydro-2-(phenylmethyl)-3H-1,2,4-triazole-3-thione] | 212 to 213 |
| Oc1cccc(Cn2nc(-c3ccccc3)[nH]c2=S)c1 [Example 35, 1,2-Dihydro-2-[(3-hydroxyphenyl)methyl]-5-phenyl-3H-1,2,4-triazole-3-thione] | 233 to 235 |
| Fc1ccc(F)c(Cn2nc(-c3ccccc3Cl)[nH]c2=S)c1 [Example 61, 5-(2-Chlorophenyl)-1,2-dihydro-2-[(2,5-difluorophenyl)methyl]-3H-1,2,4-triazole-3-thione] | 161 to 163 |
| S=c1[nH]c(-c2cc(Cl)sc2Cl)nn1Cc1ccccc1 [Example 13, 5-(2,5-Dichloro-3-thienyl)-1,2-dihydro-2-(phenylmethyl)-3H-1,2,4-triazole-3-thione] | 160 to 162 |
| FC(F)(F)c1cccc(-c2nn(Cc3ccccc3)c(=S)[nH]2)c1 [Example 10, 1,2-Dihydro-2-(phenylmethyl)-5-[3-(trifluoromethyl)phenyl]-3H-1,2,4-triazole-3-thione] | 209 to 210 |
| O=C(c1ccccc1)c1cccc(-c2nn(Cc3ccccc3)c(=S)[nH]2)c1 [Example 40, 1,2-Dihydro-5-(3-(phenylcarbonyl)phenyl)-2-(phenylmethyl)-3H-1,2,4-triazole-3-thione] | 154 to 155 |
| S=c1[nH]c(-c2ccc(-c3ccccc3)cc2)nn1Cc1ccccc1 [Example 15, 1,2-Dihydro-2-(phenylmethyl)-5-(4-phenylphenyl)-3H-1,2,4-triazole-3-thione] | 249 to 250 |
| O=[N+]([O-])c1ccc(Cn2nc(-c3ccccc3Cl)[nH]c2=S)cc1 [Example 65, 5-(2-Chlorophenyl)-1,2-dihydro-2-[(4-nitrophenyl)methyl]-3H-1,2,4-triazoe-3-thione] | 182 to 183 |
| S=c1[nH]c(-c2cccc(Oc3ccccc3)c2)nn1Cc1ccccc1 [Example 30, 1,2-Dihydro-5-(3-phenoxyphenyl)-2-(phenylmethyl)-3H-1,2,4-triazole-3-thione] | 200 to 202 |
| S=c1[nH]c(-c2ccccc2Br)nn1Cc1ccccc1 [Example 9, 5-(2-Bromophenyl)-1,2-dihydro-2-(phenylmethyl)-3H-1,2,4-triazole-3-thione] | 139 to 140 |
| COc1ccc(Cn2nc(-c3ccccc3Cl)[nH]c2=S)cc1 [Example 54] | 153 to 154 |
| COc1ccccc1-c1nn(Cc2ccccc2)c(=S)[nH]1 [Example 18, 1,2-Dihydro-5-(2-methoxyphenyl)-2-(phenylmethyl)-3H-1,2,4-triazole-3-thione] | 142 to 143.5 |
| COC(=O)c1ccccc1-c1nn(Cc2ccccc2)c(=S)[nH]1 [Example 2, 2-[1,2-Dihydro-1-(phenylmethyl)-5-thioxo-3H-1,2,4-triazol-3-yl]benzoic acid, methyl ester] | 129 to 130 |
| S=c1[nH]c(-c2ccc3ccccc3c2Br)nn1Cc1ccccc1 [Example 41, 1,2-Dihydro-5-(1-bromo-2-naphthalenyl)-2-(phenylmethyl)-3H-1,2,4-triazole-3-thione] | 168 to 170 |
| Cc1ccc(Cn2nc(-c3ccccc3Cl)[nH]c2=S)cc1 [Example 50, 5-(2-Chlorophenyl)-1,2-dihydro-2-(4-methylphenyl)methyl-3H-1,2,4-triazole-3-thione] | 162 to 163 |
| COc1ccc(-c2nn(Cc3ccccc3)c(=S)[nH]2)cc1 [Example 23, 1,2-Dihydro-5-(4-methoxyphenyl)-2-(phenylmethyl)-3H-1,2,4-triazole-3-thione] | 235 to 237 |
| COC(=O)c1ccc(-c2nn(Cc3ccccc3)c(=S)[nH]2)cc1 [Example 3, 4-[1,2-Dihydro-1-(phenylmethyl)-5-thioxo-3H-1,2,4-triazol-3-yl]benzoic acid, methyl ester] | > 215 |
| Fc1ccccc1-c1nn(Cc2ccccc2)c(=S)[nH]1 [Example 17, 5-(2-Fluorophenyl)-1,2-dihydro-2-(phenylmethyl)-3H-1,2,4-triazole-3-thione] | 180 to 183 |
| S=c1[nH]c(-c2ccc(Br)cc2)nn1Cc1ccccc1 [Example 26, 5-(4-Bromophenyl)-1,2-dihydro-2-(phenylmethyl)-3H-1,2,4-triazole-3-thione] | 250 to 251 |
| S=c1[nH]c(-c2ccccc2Cl)nn1CCc1ccccc1 [Example 66, 5-(2-Chlorophenyl)-1,2-dihydro-2-(2-phenyl)ethyl-3H-1,2,4-triazole-3-thione] | 131 to 133 |
| S=c1[nH]c(-c2cccs2)nn1Cc1ccccc1 [Example 31, 1,2-Dihydro-2-(phenylmethyl)-5-(2-thienyl)-3H-1,2,4-triazole-3-thione] | 230 to 231 |
| Cc1ccccc1-c1nn(Cc2ccccc2)c(=S)[nH]1 [Example 19, 1,2-Dihydro-5-(2-methylphenyl)-2-(phenylmethyl)-3H-1,2,4-triazole-3-thione] | 150 to 153 |

Other lines, results leading:

| melting point [°C] | SMILES |
| --- | --- |
| 205 to 212 | S=c1[nH]c(-c2cc(Cl)cc(Cl)c2)nn1Cc1ccccc1 [Example 29, 5-(3,5-Dichlorophenyl)-1,2-dihydro-2-(phenylmethyl)-3H-1,2,4-triazole-3-thione] |
| 179 to 182 | S=c1[nH]c(-c2ccc(Cl)cc2Cl)nn1CCc1ccccc1 [Example 44, 5-(2,4-Dichlorophenyl)-1,2-dihydro-2-(2-phenylethyl)-3H-1,2,4-triazole-3-thione] |
| 242 to 243 | S=c1[nH]c(-c2ccc(Br)cc2)nn1Cc1cccc(Cl)c1 [Example 46, 5-(4-Bromophenyl)-2-[(3-chlorophenyl)methyl]-1,2-dihydro-3H-1,2,4-triazole-3-thione] |
| 213 | S=c1[nH]c(-c2ccccc2)nn1Cc1cccc(Cl)c1 [Example 57, 2-[(3-Chlorophenyl)methyl]-5-phenyl-1,2-dihydro-3H-1,2,4-triazole-3-thione] |
| 231 to 233 | COc1ccc(-c2nn(Cc3cccc(Cl)c3)c(=S)[nH]2)cc1 [Example 48, 2-[(3-Chlorophenyl)methyl]-5-(4-methoxyphenyl)-1,2-dihydro-3H-1,2,4-triazole-3-thione] |
| 256 to 258 | O=[N+]([O-])c1ccc(-c2nn(Cc3cccc(Cl)c3)c(=S)[nH]2)cc1 [Example 62, 2-[(3-Chlorophenyl)methyl]-5-(4-nitrophenyl)-1,2-dihydro-3H-1,2,4-triazole-3-thione] |
| 161 to 163 | N#Cc1cccc(Cn2nc(-c3ccccc3Cl)[nH]c2=S)c1 [Example 64, 5-(2-Chlorophenyl)-1,2-dihydro-2-[(3-cyanophenyl)methyl]-3H-1,2,4-triazole-3-thione] |
| 208 to 209 | S=c1[nH]c(-c2cccnc2)nn1Cc1cccc(Cl)c1 [Example 56, 2-[(3-Chlorophenyl)methyl]-5-(3-pyridinyl)-1,2-dihydro-3H-1,2,4-triazole-3-thione] |
| 204 to 207 | S=c1[nH]c(-c2cncnc2)nn1Cc1cccc(Cl)c1 [Example 63, 2-[(3-Chlorophenyl)methyl]-5-(pyrrndin-5-yl) 1,2-dihydro-3H-1,2,4-triazole-3-thione] |
| 207 to 208 | Cc1ccc(-c2nn(Cc3cccc(Cl)c3)c(=S)[nH]2)cc1 [Example 47, 2-[(3-Chlorophenyl)methyl]-5-(4-methylphenyl)-1,2-dihydro-3H-1,2,4-triazole-3-thione] |
| 173 to 174 | COc1cccc(Cn2nc(-c3ccc(Cl)cc3Cl)[nH]c2=S)c1 [Example 33, 5-(2,4-Dichlorophenyl)-1,2-dihydro-2-[(3-methoxyphenyl)methyl]-3H-1,2,4-triazole-3-thione] |
| 169 to 170 | S=c1[nH]c(-c2ccc(Cl)cc2Cl)nn1Cc1ccccc1 [Example 27, 5-(2,4-Dichlorophenyl)-1,2-dihydro-2-(phenylmethyl)-3H-1,2,4-triazole-3-thione] |
| 143 to 143.5 | S=c1[nH]c(-c2ccccc2Cl)nn1Cc1cccc(Cl)c1 [Example 42, 5-(2-Chlorophenyl)-2-[(3-chlorophenyl)methyl]-1,2-dihydro-3H-1,2,4-triazole-3-thione] |
| 190 to 191 | S=c1[nH]c(-c2ccc(Cl)cc2Cl)nn1Cc1cccc(Cl)c1 [Example 32, 2-[(3-Chlorophenyl)methyl]-5-(2,4-dichlorophenyl)-1,2-dihydro-3H-1,2,4-triazole-3-thione] |
| 125 to 126 | Fc1cccc(Cn2nc(-c3ccccc3Cl)[nH]c2=S)c1 [Example 58, 5-(2-Chlorophenyl)-1,2-dihydro-2-[(3-fluorophenyl)methyl]-3H-1,2,4-triazole-3-thione] |
